In patent publication US11020398B2, “Amino-pyrrolopyrimidinone compounds and methods of use thereof” (ArQule, Inc., priority 2016, dated 2021):

Key:
[1] = biological target: full-length activated BTK (wildtype) (Homo sapiens (Human), UniProt Q06187); test: AlphaScreen assay, wild-type BTK; type: biochemical
[2] = biological target: full-length activated BTK mutant C481S (Homo sapiens (Human), UniProt Q06187, C481S); test: AlphaScreen assay, BTK mutant C481S; type: biochemical; details: for inhibition at 10 µM: read-out: BTK-C481S % @ 10 uM, @ 10 uM
Sequence of full-length activated BTK mutant C481S (Q06187 whole entry C481S): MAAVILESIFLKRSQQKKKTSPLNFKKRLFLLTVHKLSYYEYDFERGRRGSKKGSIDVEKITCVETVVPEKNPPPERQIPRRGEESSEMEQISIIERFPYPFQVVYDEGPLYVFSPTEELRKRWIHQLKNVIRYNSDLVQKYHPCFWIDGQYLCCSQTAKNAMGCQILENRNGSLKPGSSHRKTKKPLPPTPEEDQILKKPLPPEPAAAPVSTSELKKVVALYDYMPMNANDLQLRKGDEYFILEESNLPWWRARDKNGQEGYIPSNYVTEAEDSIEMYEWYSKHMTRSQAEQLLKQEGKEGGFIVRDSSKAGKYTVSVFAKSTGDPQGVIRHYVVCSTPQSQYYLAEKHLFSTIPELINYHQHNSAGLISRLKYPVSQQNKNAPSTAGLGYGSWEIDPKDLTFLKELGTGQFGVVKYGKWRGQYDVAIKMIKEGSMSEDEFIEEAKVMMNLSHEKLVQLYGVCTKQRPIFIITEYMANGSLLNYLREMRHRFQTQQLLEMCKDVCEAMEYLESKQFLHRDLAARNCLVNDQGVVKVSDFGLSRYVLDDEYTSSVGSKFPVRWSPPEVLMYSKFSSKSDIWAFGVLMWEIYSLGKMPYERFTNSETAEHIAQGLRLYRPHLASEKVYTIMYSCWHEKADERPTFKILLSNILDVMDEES

Sequence of full-length activated BTK (wildtype) (Q06187 whole entry): as the sequence (Q06187 whole entry C481S) above, with S481C counted along it

Row | SMILES | IC50 [1] [nM] | IC50 [2] [nM] | inhibition at 10 µM ([1]; read-out: BTK % @ 10 uM, @ 10 uM) [%] | inhibition at 10 µM [2] [%]
1 | O=C(c1cccc(NC(=O)C2CCOCC2)c1)c1c[nH]c2ncnc(N[C@@H]3CC[C@@H](CO)OC3)c12 [Compound I-644, N-(3-(4-(((3R,6S)-6-(hydroxymethyl)tetrahydro-2H-pyran-3-yl)amino)-7H-pyrrolo[2,3-d]pyrimidine-5-carbonyl)phenyl)tetrahydro-2H-pyran-4-carboxamide] | – | – | 58 | 44
2 | COCC(=O)Nc1cccc(C(=O)c2c[nH]c3ncnc(N[C@@H]4CC[C@@H](CO)OC4)c23)c1 [Compound I-645, N-(3-(4-(((3R,6S)-6-(hydroxymethyl)tetrahydro-2H-pyran-3-yl)amino)-7H-pyrrolo[2,3-d]pyrimidine-5-carbonyl)phenyl)-2-methoxyacetamide] | 743 | – | – | 81
3 | O=C(c1ccc(N2CCCCC2)cc1Cl)c1c[nH]c2ncnc(N[C@@H]3CC[C@@H](CO)OC3)c12 [Compound I-646, (2-chloro-4-(piperidin-1-yl)phenyl)(4-(((3R,6S)-6-(hydroxymethyl)tetrahydro-2H-pyran-3-yl)amino)-7H-pyrrolo[2,3-d]pyrimidin-5-yl)methanone] | 380 | 781 | – | –
4 | O=C(c1ccc(N2CC3(COC3)C2)cc1Cl)c1c[nH]c2ncnc(N[C@@H]3CC[C@@H](CO)OC3)c12 [Compound I-647, (2-chloro-4-(2-oxa-6-azaspiro[3.3]heptan-6-yl)phenyl)(4-(((3R,6S)-6-(hydroxymethyl)tetrahydro-2H-pyran-3-yl)amino)-7H-pyrrolo[2,3-d]pyrimidin-5-yl)methanone] | 1440 | 108 | – | –
5 | COCCOc1ccc(Cl)c(C(=O)c2c[nH]c3ncnc(N[C@@H]4CC[C@@H](CO)OC4)c23)c1 [Compound I-648, (2-chloro-5-(2-methoxyethoxy)phenyl)(4-(((3R,6S)-6-(hydroxymethyl)tetrahydro-2H-pyran-3-yl)amino)-7H-pyrrolo[2,3-d]pyrimidin-5-yl)methanone] | 731 | 810 | – | –
6 | COCCOc1cccc(C(=O)c2c[nH]c3ncnc(N[C@@H]4CC[C@@H](CO)OC4)c23)c1 [Compound I-649, (4-(((3R,6S)-6-(hydroxymethyl)tetrahydro-2H-pyran-3-yl)amino)-7H-pyrrolo[2,3-d]pyrimidin-5-yl)(3-(2-methoxyethoxy)phenyl)methanone] | 959 | – | – | 82
7 | COc1ccccc1C(=O)NCc1ccc(C(=O)c2c[nH]c3ncnc(N[C@@H]4CC[C@@H](CO)OC4)c23)cc1 [Compound I-652, N-(4-(4-(((3R,6S)-6-(hydroxymethyl)tetrahydro-2H-pyran-3-yl)amino)-7H-pyrrolo[2,3-d]pyrimidine-5-carbonyl)benzyl)-2-methoxybenzamide] | 177 | 497 | – | –

The next lines start with the values.

Row | IC50 [1] [nM] | IC50 [2] [nM] | inhibition at 10 µM ([1]; read-out: BTK % @ 10 uM, @ 10 uM) [%] | inhibition at 10 µM [2] [%] | SMILES
8 | 269 | 150 | – | – | O=C(Nc1cccc(C(=O)c2c[nH]c3ncnc(N[C@@H]4CC[C@@H](CO)OC4)c23)c1)c1ccccn1 [Compound I-643, N-(3-(4-(((3R,6S)-6-(hydroxymethyl)tetrahydro-2H-pyran-3-yl)amino)-7H-pyrrolo[2,3-d]pyrimidine-5-carbonyl)phenyl)picolinamide]
9 | 202 | 326 | – | – | O=C(c1ccc(Nc2ccccc2)cc1Cl)c1c[nH]c2ncnc(N[C@@H]3CC[C@@H](CO)OC3)c12 [Compound I-650, (2-Chloro-4-(phenylamino)phenyl)(4-(((3R,6S)-6-(hydroxymethyl)tetrahydro-2H-pyran-3-yl)amino)-7H-pyrrolo[2,3-d]pyrimidin-5-yl)methanone]
10 | 332 | 230 | – | – | CNC(=O)c1ccc(Oc2ccc(C(=O)c3c[nH]c4ncnc(N[C@@H]5CC[C@@H](CO)OC5)c34)c(Cl)c2)cn1 [Compound I-651, 5-(3-chloro-4-(4-(((3R,6S)-6-(hydroxymethyl)tetrahydro-2H-pyran-3-yl)amino)-7H-pyrrolo[2,3-d]pyrimidine-5-carbonyl)phenoxy)-N-methyl picolinamide]
